Measured values from patent publication US20210323914A1, “IONIZABLE CATIONIC LIPID FOR RNA DELIVERY” (Arcturus Therapeutics, Inc., priority 2017, published 2021).

Tests used:
[1] = tested on: mouse epo mRNA; assay: In vivo EPO mRNA stability after injection of lipid encapsulated mouse epo mRNA; design: species or system Balb/c mice; settings: 0.03 and 0.1 mg/kg intravenous, 6 hours after injection, mice
Method: Levels of mRNA in plasma were measured and compared following injection of nanoparticles comprising different cationic lipids. Female Balb/c mice (6-8 week old) were used for evaluation of plasma erythropoietin (epo) levels in vivo following injection of lipid encapsulated mouse epo mRNA. All Formulations were administered intravenously via tail vein injection at a dose of 0.03 and 0.1 mg/kg at a dosing volume of 5 ml/kg. Terminal blood collection was performed via cardiac puncture under 2% isoflurane at 6 hours after Formulation injections. Blood was collected into 0.109 M citrate buffer tube and processed by centrifugation at 5000 rpm for 10 minutes. Serum was collected and epo mRNA levels were analyzed. Results are shown at FIG. 17.

[2] = Measured pKa of cationic lipids in LNP or micellar formulations by TNS fluorescence; assay type: physicochemical; settings: for pKa: measured in the Formulation milieu, TNS fluorescence, 1 mM total lipids
Method: pKa of cationic lipids in LNP or micellar Formulations were measured by the procedure of Jayaraman, 2012, Angew. Chem. Int. Ed., 51:8529-33, hereby incorporated by reference. Lipid micelles or LNPs are diluted to 1 mM total lipids in universal buffer with a pH range between 3 and 12 in presence of 0.06 mg/mL 6-(p-toluidino)-2-naphthalenesulfonic acid sodium salt (TNS) reagent (Sigma Aldrich), a pH sensitive fluorescence probe. The anionic TNS molecule fluoresces when associated with the surface of positively charged membranes but is not fluorescent when free in solution, allowing measurement of pKa. The TNS signal is measured on a spectral plate reader. The TNS signal is plotted as function of the pH and analyzed using a non-linear (Boltzman) to determine the pKa.
Reagents used in the assay include • Hepes free acid, CAS: 7365-45-9 (VWR, 0511-1KG or equivalent) • MES, HPLC grade: (Sigma 105228-100G or equivalent) • Ammonium acetate, HPLC grade: (Sigma 90335-100 mL or equivalent) • Sodium chloride, HPLC grade (VWR EM-MX0475-1 or equivalent) • TNS (Sigma-Aldrich T9792-250 mg or equivalent) • Hydrochloric acid • DMSO • DPBS without calcium and magnesium (GE, SH30028.02 or equivalent) • H2O, HPLC grade (OmniSolv, WX0004-1 or equivalent)
To prepare a stock solution of Universal Buffer (UB) in a polystyrene sterile storage bottle, prepare 1 L using the following table.
Reagents are sterile filtered through a 0.2 μm filter. Preparation of UB solution includes adding 5 mL of 1 M HCl to a 350 mL stock solution.
To prepare a pH ladder, centrifuge tubes (50 mL) with 20 mL UB buffer are used. (pH ˜3) and differing amounts of 2 N NaOH. Stock solutions of TNS at 1 mg/mL in DMSO. 60 μL of TNS at 1 mg/mL is added to 940 μL water to reach a working solution concentration of 0.06 mg/mL. Five test samples, 1 mL of LNP sample in PBS at 1 mM total lipid, and 1 reference sample are analyzed per plate. Samples at different pH values are prepared in wells in which 25 μL of 0.06 mg/mL TNS is added. 15 μL of test samples is added per well. The microplate is incubated for 15 minutes at room temperature in the dark. TNS template can be used to format data from the plate reader. Perform non-linear (Boltzman) regression analysis of the samples in Origin Pro 8 or equivalent software.

[3] = tested on: Factor VII; assay: In vivo mouse Factor VII siRNA knockdown with lipid nanoparticles; design: species or system C57BL/6 mice; settings: intravenous, mice, 48 hours
From the text: The first pair of numbers denotes the number of carbons in the ester, including the carbonyl, for L1 and L2; the pair of numbers in the parenthesis denotes the number of carbons in each branch of the branched alkyl, R1 or if R2 is also branched, R1/R2 (an asterisk denotes a double bond); the number of carbons in R3 is given; and the last line denotes the substitution for R4 and R5. The ATX number is given for reference herein. Calculated Log D values (c-Log D) and calculated pKa (c-pKa) values are given, as well as measured pKa in parenthesis (measured in the Formulation milieu). The c-Log D and c-pKa values are generated by ACD Labs Structure Designer v12.0. Bioactivity is percentage in vivo Factor VII knockdown at a dose of 0.03 mg/kg, unless otherwise designated.
Using a liver-directed in vivo screen of the liposome libraries, a series of compounds were tested that facilitate high levels of siRNA mediated gene silencing in hepatocytes, the cells comprising the liver parenchyma. Factor VII, a blood-clotting factor, is a suitable target gene for assaying functional siRNA delivery to liver. Because this factor is produced specifically in hepatocytes, gene silencing indicates successful delivery to parenchyma, as opposed to delivery to the cells of the reticulo-endothelial system (e.g., Kupffer cells). Furthermore, Factor VII is a secreted protein that can be readily measured in serum, obviating the need to euthanize animals. Silencing at the mRNA level can be readily determined by measuring levels of protein. This is because the protein's short half-life (2-5 hour). Compositions with siRNA directed to […] were Formulated with the lipid, and comparator sample phosphate-buffered saline (PBS). Female C57BL/6 mice (6-8 week old) were used for FVII siRNA knockdown (KD) experiments.
All Formulations were administered intravenously via tail vein injection at a dose of 0.03 and 0.1 mg/kg at a dosing volume of […]. Terminal blood collection was performed via cardiac puncture under 2% isoflurane at 48 hours after Formulation injections. Blood was collected into 0.109 M citrate buffer tube and processed by centrifugation at 1200 G for 10 min. Plasma was collected and Factor VII protein levels were analyzed by chromogenic assay (Biophen FVII, Aniara Corporation). A standard curve was constructed using samples from PBS-injected mice and relative Factor VII expression was determined by comparing treated groups to untreated PBS control.

[4] = tested on: epo protein; assay: In vivo epo protein expression after delivery of lipid encapsulated mouse epo mRNA (epo ELISA); design: species or system Balb/c mice; settings: at 0.1 mg/kg, intravenous, 6 hours, mice
Method: Epo expression following delivery of mRNA using lipid nanoparticles comprising the lipids described herein was measured.
Female Balb/c mice (6-8 weeks old) were used for evaluation of epo protein expression in vivo following delivery of lipid encapsulated mouse epo mRNA. All formulations were administered intravenously via tail vein injection at a dose of 0.03 and 0.1 mg/kg at a dosing volume of 5 mL/kg. Terminal blood collection was performed via cardiac puncture under 2% isoflurane at 6 hours after Formulation injections. Blood was collected into 0.109 M citrate buffer tube and processed by centrifugation at 5000 rpm for 10 minutes. Serum was collected and epo protein levels were analyzed by epo ELISA assay (R&D systems). A standard curve was constructed using samples from PBS-injected mice and relative […] expression was determined by comparing treated groups to untreated PBS control.

SMILES | epo mRNA levels in serum compared with ATX-0002 (FIG. 17) [1] | pKa [2] | Bioactivity: percentage in vivo Factor VII knockdown ([3]; dose 0.03 mg/kg) | other results
CCCCCC/C=C\COC(=O)CCCN(CCCC(=O)OC(CCCCCCCC)CCCCCCCC)C(=O)SCCN(C)C [ATX-0087] | substantial improvement over ATX-0002 |  |  | 
CCCCCC/C=C\COC(=O)CCCCCN(CCCCCC(=O)OC(CCCCCC)CCCCCC)C(=O)SCCN(C)C [ATX-0084] | substantial improvement over ATX-0002 | 6.11 | 68 percentage | 
CCCCCC/C=C\COC(=O)CCCN(CCCC(=O)OC(CCCCCC)CCCCCC)C(=O)SCCN(C)C [ATX-0086] | substantial improvement over ATX-0002 | 6.05 | 13 percentage | 
CCCCCC/C=C\COC(=O)CCCN(CCCC(=O)OC(CCCCCCC)CCCCCCCC)C(=O)SCCN(C)C (centres unmarked) [ATX-0057] | substantial improvement over ATX-0002 | 5.7 | 86 percentage | epo expression compared with ATX-002 (FIG. 19) [4]: substantially higher amounts; Δ measured pKa vs ATX-0002 ([2]; change on shortening the ester, vs ATX-0002): no impact; Factor VII knockdown activity compared with ATX-002 (FIG. 18) ([3]; both at 0.03 and 0.1 mg/kg): substantially more effective than ATX-002
CCCCCC/C=C\COC(=O)CCCCCCCN(CCCCCCCC(=O)OC(CCCCCCCC)CCCCCCCC)C(=O)SCCN(C)C [ATX-0096] |  | 5.59 | 40 percentage | 
CCCCCC/C=C\COC(=O)CCCCCN(CCCC(=O)OC(CCCCCCC)CCCCCCC)C(=O)SCCN(C)C [ATX-0083] | substantial improvement over ATX-0002 | 5.98 | 65 percentage | 
CCCCCC(CCCCC)OC(=O)CCCN(CCCC(=O)OC(CCCCC)CCCCC)C(=O)SCCCN(CC)CC |  | 5.56 |  | Bioactivity: percentage in vivo Factor VII knockdown ([3]; dose 0.1 mg/kg): 27 (0.1 mg/ kg) percentage
CCCCCC/C=C\COC(=O)CN(CC(=O)OC(CCCCCCCC)CCCCCCCC)C(=O)SCCCN(CC)CC |  | 6.2 | 82 percentage | 
CCCCCC/C=C\COC(=O)CCCN(CCCC(=O)OC(CCCCCCCC)CCCCCCCC)C(=O)SCCN(C)C [drawing 76] |  | 6.06 | 80 percentage | 
CCCCCC/C=C\COC(=O)CN(CC(=O)OC(CCCCCCCC)CCCCCCCC)C(=O)SCCCCN(CC)CC |  | 6.9 | 97 percentage | 
CCCCCC/C=C\COC(=O)CN(CC(=O)OC(CCCCCCCC)CCCCCCCC)C(=O)SCCCCN(C)C |  | 6.69 | 90 percentage | 
CCCCCC/C=C\COC(=O)CCCCCN(CCCCCC(=O)OC(CCCCCCC)CCCCCCC)C(=O)SCCCN(CC)CC |  | 6.45 | 95 percentage | 
CCCCCC/C=C\COC(=O)CCCCCCCN(CCCCCCCC(=O)OC(CCCC)CCCC)C(=O)SCCN(C)C |  | 6.22 | 71 percentage | 
CCCCCC/C=C\COC(=O)CCCCCCN(CCCCCCC(=O)OC(CCCCCC)CCCCCC)C(=O)SCCN(C)C |  | 5.67 | 66 percentage | 
CCCCCC/C=C\COC(=O)CCCN(CCCC(=O)OC(CCCCCCC)CCCCCCC)C(=O)SCCN(C)C [ATX-0081] | substantial improvement over ATX-0002 | 6.04 | 93 percentage | 
CCCCCC/C=C\COC(=O)CCCCCN(CCC(=O)OC(CCCCCCC)CCCCCCC)C(=O)SCCN(C)C [ATX-0082] | substantial improvement over ATX-0002 |  |  | 
